One series has as its system HepG2. In words: Antiproliferative activity against human HepG2 cells incubated for 48 hrs by MTT assay. Conditions: HepG2, 48 h. Format: functional, cell-based.
For the next series, the system named is HCT-116. In words: Antiproliferative activity against human HCT-116 cells incubated for 48 hrs by MTT assay. The series is classed as functional, cell-based. As to conditions: HCT-116, 48 h.
Another series has as its system MCF7. In words: Antiproliferative activity against human MCF7 cells incubated for 48 hrs by MTT assay. The series is classed as functional, cell-based. As to conditions: MCF7, 48 h.
Another series relates to NCI-H23. Briefly: Antiproliferative activity against human NCI-H23 cells incubated for 48 hrs by MTT assay. The series is classed as functional, cell-based. As to conditions: NCI-H23, 48 h.
The test system of the next series is HeLa. In words: Antiproliferative activity against human HeLa cells incubated for 48 hrs by MTT assay. Format: functional, cell-based.
Series [1] concerns B16-F10. Briefly: Antiproliferative activity against mouse B16-F10 cells incubated for 48 hrs by MTT assay. The series is classed as functional, cell-based. As to conditions: B16-F10, 48 h.
The nature of series [2]: Toxicity in C57 mouse xenografted with mouse B16-F10 cells assessed as body weight change at 7 mg/kg, ip qd for 12 days. The series is classed as organism-based. As to conditions: in vivo, 288 h, time 12 day.
The test system of series [3] is B16-F10. In words: Antitumor activity against mouse B16-F10 cells xenografted in C57 mouse at 7 mg/kg, ip qd for 12 days relative to control. The series is classed as functional. As to conditions: B16-F10, 288 h, time 12 day, read-out: TGI.
For series [4], the system named is B16-F10. Briefly: Antitumor activity against mouse B16-F10 cells xenografted in C57 mouse assessed as suppression of tumor growth at 7 mg/kg, ip qd for 12 days. Conditions: time 12.0 day. Format: functional, organism-based.

The source made the active and inactive calls. The rule behind the calls is not given here.

As for `COc1cc(N(C)c2nc(C)nc3ccsc23)cc(OC)c1OC`, the IC50 in the series on HepG2, with HCT-116, in the series with MCF7, with NCI-H23, in the series with HeLa and in the series with B16-F10 [1] was over 100 nM in each case.

Regarding `Cc1nc(N(C)c2ccc3ccccc3c2)c2sccc2n1`, the 50% inhibitory concentration (IC50) with HepG2 turned out to be 18 nM; in the series with HCT-116 it was 0.58 nM; in the series on MCF7, 20 nM; in the series with NCI-H23, 18.8 nM; in the series on HeLa, 9 nM; in the series on B16-F10 [1], 15.6 nM.

In the case of `COc1ccccc1N(C)c1nc(C)nc2ccsc12`, the IC50 with HepG2, with HCT-116, in the series on MCF7, in the series with NCI-H23, in the series on HeLa and with B16-F10 [1] was over 100 nM each time.

With `Cc1nc(N(C)c2ccc(C(F)(F)F)cc2)c2sccc2n1`, the IC50 in the series on HepG2, in the series on HCT-116, in the series on MCF7, in the series on NCI-H23, with HeLa and with B16-F10 [1] was over 100 nM throughout.

In the case of `COc1ccc(N(C)c2nc(C)nc3ccsc23)cc1[N+](=O)[O-]`, the IC50 was 18.5 nM in the series on HepG2; 1.56 nM in the series with HCT-116; 4.68 nM with MCF7; 18.8 nM with NCI-H23; 20 nM in the series with HeLa; 6.25 nM with B16-F10 [1].

As for `COc1cccc(N(C)c2nc(C)nc3ccsc23)c1`, the IC50 in the series on HepG2, in the series on HCT-116, in the series with MCF7, with NCI-H23, in the series on HeLa and in the series with B16-F10 [1] was over 100 nM each time.

With `Cc1nc(N(C)c2cccc(C(F)(F)F)c2)c2sccc2n1`, the IC50 with HepG2, in the series with HCT-116, in the series on MCF7, in the series with NCI-H23, with HeLa and with B16-F10 [1] was over 100 nM throughout.

In the case of `Cc1cccc(N(C)c2nc(C)nc3ccsc23)c1`, the 50% inhibitory concentration (IC50) in the series on HepG2, in the series with HCT-116, with MCF7, with NCI-H23, in the series on HeLa and in the series with B16-F10 [1] was over 100 nM in each case.

As to `Cc1nc(N(C)c2ccccc2C)c2sccc2n1`, the IC50 in the series with HepG2, with HCT-116, in the series on MCF7, with NCI-H23, with HeLa and in the series on B16-F10 [1] was over 100 nM each time.

For the molecule `Cc1nc(N(C)c2ccc(C(C)C)cc2)c2sccc2n1`, the IC50 in the series on HepG2, in the series on HCT-116, with MCF7, in the series with NCI-H23, in the series on HeLa and in the series with B16-F10 [1] was over 100 nM each time.

Regarding `COc1cc2c(c(OC)c1OC)-c1ccc(OC)c(=O)cc1[C@@H](NC(C)=O)CC2` [COLCHICINE], the IC50 came out at 5 nM with HepG2; 9.37 nM in the series on HCT-116; 3.1 nM in the series with NCI-H23; 9.35 nM in the series with HeLa; 18.8 nM in the series with B16-F10 [1].

With `Cc1nc(N(C)c2ccc(OC(C)C)cc2)c2sccc2n1`, the concentration for half-maximal inhibition (IC50) in the series with HepG2, in the series with HCT-116, in the series on MCF7, in the series with NCI-H23, in the series on HeLa and in the series on B16-F10 [1] was over 100 nM each time.

For `Cc1c(COc2cc(OCc3cccc(C#N)c3)c(CNC(C)(C)C(=O)O)cc2Cl)cccc1-c1ccccc1`, in series [2], the Activity result is “Non-Toxic”. Besides, the inhibition in vivo at 7 mg/kg in the series with B16-F10 [3] was 43.9%. Also, the result in the series with B16-F10 [4] was Active.

As for `Cc1ccc(N(C)c2nc(C)nc3ccsc23)cc1`, the IC50 in the series with HepG2, in the series on HCT-116, in the series with MCF7, in the series with NCI-H23, with HeLa and in the series on B16-F10 [1] was over 100 nM in each case.

As to `CN(c1ccc2c(ccn2C)c1)c1ncnc2ccsc12`, the concentration for half-maximal inhibition (IC50) in the series on HepG2, in the series on HCT-116, in the series on MCF7, in the series on NCI-H23, in the series with HeLa and with B16-F10 [1] was over 100 nM in each case.

In the case of `Cc1nc(N(C)c2ccc(Cl)c(Cl)c2)c2sccc2n1`, the concentration for half-maximal inhibition (IC50) with HepG2, with HCT-116, with MCF7, in the series with NCI-H23, with HeLa and in the series on B16-F10 [1] was over 100 nM each time.

For the molecule `COc1ccc(N(C)c2nc(C)nc3ccsc23)cc1OC`, the half-inhibitory concentration (IC50) in the series on HepG2, with HCT-116, in the series with MCF7, with NCI-H23, in the series with HeLa and in the series on B16-F10 [1] was over 100 nM each time.

For the molecule `Cc1nc(N(C)c2cccc(OC(F)(F)F)c2)c2sccc2n1`, the IC50 in the series on HepG2, in the series with HCT-116, with MCF7, in the series with NCI-H23, in the series with HeLa and in the series on B16-F10 [1] was over 100 nM each time.

As to `COc1ccc(N(C)c2nc(C)nc3ccsc23)cc1C(F)(F)F`, the half-maximal inhibitory concentration (IC50) with HepG2, in the series on HCT-116, in the series with MCF7, in the series on NCI-H23, in the series on HeLa and in the series with B16-F10 [1] was over 100 nM throughout.

With `Cc1nc(N(C)c2cccc3ccccc23)c2sccc2n1`, the half-inhibitory concentration (IC50) with HepG2, in the series with HCT-116, in the series on MCF7, in the series with NCI-H23, with HeLa and in the series on B16-F10 [1] was over 100 nM each time.

Regarding `COc1ccc(N(C)c2nc(C)nc3ccsc23)cc1`, the half-inhibitory concentration (IC50) with HepG2 was found to be 18.8 nM; with HCT-116, 3.12 nM; in the series with MCF7, 1.4 nM; with NCI-H23, 9.37 nM; in the series on HeLa, 18.8 nM; in the series with B16-F10 [1] it was 30 nM.

`Cc1nc(N(C)c2cc(Cl)cc(Cl)c2)c2sccc2n1`: the IC50 with HepG2, with HCT-116, with MCF7, in the series with NCI-H23, in the series with HeLa and in the series with B16-F10 [1] was over 100 nM in each case.

Take `COc1cc(OC)cc(N(C)c2nc(C)nc3ccsc23)c1`: the IC50 in the series with HepG2, with HCT-116, with MCF7, in the series with NCI-H23, in the series with HeLa and in the series on B16-F10 [1] was over 100 nM in each case.

Values taken from ChEMBL document CHEMBL5614416, “Discovery of novel thiophene[3,2-d]pyrimidine-based tubulin inhibitors with enhanced antitumor efficacy for combined use with anti-pd-l1 immunotherapy in melanoma” (Eur J Med Chem, 2024).
